Experimental data from EP4374708A1, “NUTRITIONAL SUPPLEMENT PREPARATION” (Avea Life AG, priority 2022, dated 2024).
Values after ≈ are worked out from the molar mass of the structure shown.

Assay: physchem
Settings: water

O=C(O)[C@@H]1C[C@@H](O)CN1 [hydroxyproline]
solubility: 198 mM (≈ 26 mg/mL)
